Among the data in the METLIN SMRT retention time set (Domingo-Almenara et al. 2019) are RP-LC retention time values, retold here.

Each structure is given as a SMILES string.

This data set in a line: gradient 5% acetonitrile 3 min, to 50% in 2 min, to 85% in 15 min, held 3 min, 100 µL/min. The following applies: column: Zorbax Extend-C18 2.1 x 50 mm; eluents: water / acetonitrile, 0.1% formic acid. The method, boiled down:
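Data were gathered over 3 months by HPLC coupled to a quadrupole time-of-flight mass spectrometer, operated in positive and negative ionization mode. Mixtures of ~100 pure standards ran on a Zorbax Extend-C18 column (2.1 × 50 mm, 1.8 μm) at 100 μL/min, with water and acetonitrile each containing 0.1% formic acid and dead and dwell volumes of 40 μL and 900 μL. Retention time was read from adduct peaks picked by computer and checked manually.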
As to `O=C(Nc1cnn(-c2ncc(N3CCCCC3)cn2)c1)NC1CCCC1`, the RP-LC retention time came out at 754 s.

Take `O=C(NC1CCCCCC1)c1nc(Cn2c(=O)oc3ccc(Cl)cc32)no1`: the RP-LC retention time came to 1050 s.

With `O=C(NC1CCCCCCC1)C1CCN(C(=O)c2ccccc2F)CC1`, the RP-LC retention time came out at 855 s.

The molecule `O=C(c1ccc(Cl)cc1)N1CCN(S(=O)(=O)c2cc3c4c(c2)CCC(=O)N4CCC3)CC1` gave an RP-LC retention time of 838 s.

In the case of `O=C(NC1CCCC1)NC1CCN(C(=O)C2CC2)C1` (stereo not given), the RP-LC retention time came to 631 s.

With `CN(CCNC(=O)C1CCCN(c2ncnc3c2nc2n3CCCCC2)C1)Cc1ccccc1` (stereo not given), the RP-LC retention time turned out to be 623 s.

`CC(C)c1nc2cccnc2n1CCN1CCN(C(=O)Nc2ccc(Br)cc2F)CC1` gave an RP-LC retention time of 632 s.

Molecule `CCOC(=O)C1CCCN(C(=O)Cn2cnc(-c3cccs3)cc2=O)C1` (stereo not given) yielded an RP-LC retention time of 684 s.

Molecule `Nc1cccc(-c2ccc(N3CCOCC3)nn2)c1` showed an RP-LC retention time of 546 s.

The molecule `O=C(Nc1cc(-c2ccccn2)no1)c1ccc2ccccc2n1` gave an RP-LC retention time of 965 s.

Regarding `COc1ccc(Nc2ncc(C(=O)O)c3ccccc23)cc1`, the RP-LC retention time stood at 599 s.

With `Cc1ccc(C)n1-c1nnc(N2CCCC(C(=O)NCCc3c[nH]c4ccccc34)C2)s1` (stereo not given), the RP-LC retention time is 950 s.

`CS(=O)(=O)N(C1CCOCC1)C1CN(C(=O)c2n[nH]c3ccccc23)C1` had an RP-LC retention time of 663 s.

In turn, `COc1ccc(NC(=O)CN2c3ccc(F)cc3-c3ccccc3S2(=O)=O)c(OC)c1` displayed an RP-LC retention time of 975 s.

`O=C(O)CSc1nnc(-c2ccc(Cl)cc2Cl)n1Cc1ccccc1` yielded an RP-LC retention time of 771 s.

`O=C(Nc1ccc(F)cc1F)N1CCN(Cc2nc3cc(-c4ccccc4)ccc3o2)CC1` registered an RP-LC retention time of 869 s.

For the molecule `O=C(CN1C(=O)C2CCCCN2c2ccc(S(=O)(=O)N3CCCCC3)cc21)NC1CCCCC1` (stereo not given), the RP-LC retention time stood at 1030 s.

For `O=C(c1ccco1)N1CCCC(c2ccnc(-c3ccccc3)n2)C1` (stereo not given), the RP-LC retention time came out at 962 s.

Molecule `O=C(Nc1ccnn1Cc1ccco1)C(c1ccccc1)c1ccccc1` gave an RP-LC retention time of 926 s.

In the case of `CC(=O)N1c2ccc(S(=O)(=O)N3CCCCC3)cc2CC1C(=O)NCCN(C)C1CCCCC1` (stereo not given), the RP-LC retention time came to 655 s.

`O=C(N1CCC(NS(=O)(=O)c2cccc(F)c2)CC1)N1C[C@H]2C[C@H](C1)[C@H]1CCCC(=O)N1C2` returned an RP-LC retention time of 704 s.

In the case of `Cc1cc(C)cc(N2CC(C)Cn3c2nc2c3c(=O)n(CC(=O)O)c(=O)n2C)c1` (stereo not given), the RP-LC retention time is 826 s.

Take `O=C(Cc1cccc(F)c1)NC1(c2nc(-c3ccsc3)no2)CCCCC1`: the RP-LC retention time turned out to be 589 s.

For the molecule `O=C(C1=CN(c2cccc(F)c2)c2cc(F)ccc2S1(=O)=O)N1CCCCC1`, the RP-LC retention time came to 872 s.

With `CCCCC(=O)Nc1ccc2nc(N3CCN(c4ccccc4)CC3)cc(C(=O)O)c2c1`, the RP-LC retention time came out at 672 s.

For the molecule `COCc1cc(=O)n(CC(=O)Nc2ccc(C)cc2C)c(N)n1`, the RP-LC retention time amounted to 584 s.

Regarding `O=C1NCCN2CC3(CCN(C(=O)Nc4ccccc4F)CC3)CC12` (stereo not given), the RP-LC retention time came to 564 s.

Molecule `CC(C)n1cnc(S(=O)(=O)N2CCCC(C(=O)N3CCN(c4ccccn4)CC3)C2)c1` (stereo not given) came in with an RP-LC retention time of 581 s.

The molecule `CC(C)Oc1ccc(-c2noc(CN3N=NC4C(=O)N(c5cccc(Cl)c5)C(=O)C43)n2)cc1` (stereo not given) gave an RP-LC retention time of 1040 s.

In turn, `CCn1c(C)c(C(=O)CN(CC2CCCO2)C(=O)c2ccc(Cl)cc2)c(C)c1C(=O)OC` (stereo not given) yielded an RP-LC retention time of 978 s.

Molecule `COc1ccc(-c2cc3c4nnc(SCC(=O)Nc5cccc(Cl)c5)n4ccn3n2)cc1` displayed an RP-LC retention time of 911 s.

Molecule `CN(C)S(=O)(=O)c1ccc(-c2nnc(C(=O)NCc3ccccc3Cl)o2)cc1` gave an RP-LC retention time of 894 s.

`CCOc1cccc(CNC(=O)c2nc3cccnc3n(CC)c2=O)c1` gave an RP-LC retention time of 548 s.

As to `CC(C)CC(=O)N1CCC(CC(=O)N2CCOCC2)C1` (stereo not given), the RP-LC retention time turned out to be 622 s.

For `CN1C(=O)C(C)(C(=O)Nc2ccc(F)cc2)Oc2cccnc21` (stereo not given), the RP-LC retention time was 847 s.

As for `CCC(=O)Nc1ccc(CCc2nc3ccc(C(=O)NCc4ccco4)cc3[nH]2)cc1`, the RP-LC retention time was 597 s.

As for `O=[N+]([O-])c1cn2c(n1)OC[C@@H](OCc1ccc(OC(F)(F)F)cc1)C2`, the RP-LC retention time is 916 s.

The molecule `CCNC(=O)c1ccc(-n2nc(C)cc2-c2ccccc2)cc1` came in with an RP-LC retention time of 749 s.

Molecule `CCCn1c(=O)c(-c2ccc(C(=O)NCCCN3CCCC3)cc2)nc2ccccc21` showed an RP-LC retention time of 653 s.

`Cc1ccc(Cn2c(=O)n(CCNC(=O)c3cccn3C)c3ncccc32)cc1` displayed an RP-LC retention time of 822 s.

`Cc1cccc(NC(=O)N2CC(Cc3nncn3C(C)C)C2)c1C` yielded an RP-LC retention time of 627 s.

As to `CCOC(=O)c1ccccc1NC(=O)Cn1nc2c(Oc3ccccc3)nccn2c1=O`, the RP-LC retention time was 1000 s.

In the case of `Cn1ccnc1C(=O)N1CCCCCCNC(=O)[C@@H]2CCCC[C@@H]21`, the RP-LC retention time is 627 s.

`COCc1noc([C@@H]2CN(C(=O)C3CC=CCC3)C[C@H]2C(N)=O)n1` (stereo not given in full) gave an RP-LC retention time of 610 s.

The molecule `CC(C)CC(=O)Nc1ccc(-n2cnc(C(=O)N3CCN(C(C)C)CC3)c2)nc1` registered an RP-LC retention time of 581 s.

As for `CCn1ccc2c(cc(C(=O)Nc3ccc(C)c(C)c3)n2C)c1=O`, the RP-LC retention time amounted to 824 s.

With `Cc1noc2nc(CCC(=O)NC(C)c3ccccc3)nc(N3CCCC3)c12` (stereo not given), the RP-LC retention time stood at 790 s.

As to `COc1ccc(-c2nc(-c3cn(-c4cccc(Cl)c4)nn3)no2)cc1OC`, the RP-LC retention time came to 1040 s.

The molecule `O=C(Cn1c(=O)cc(-c2nc(C3CC3)no2)c2ccccc21)NCCC1=CCCCC1` came in with an RP-LC retention time of 1110 s.

In turn, `CC(=O)NCC1(O)CCCC(C)C1` (stereo not given) had an RP-LC retention time of 663 s.

In turn, `COC(=O)C1=C(N)Oc2cc(C)n(CCN(C)C)c(=O)c2C1c1ccccc1Cl` (stereo not given) returned an RP-LC retention time of 624 s.

For `Cc1cnc(C2CC2)n1C1CCN(S(=O)(=O)c2ccc(C#N)cc2)C1` (stereo not given), the RP-LC retention time came out at 647 s.

`O=C(Cn1cnc(-c2nc(-c3ccccc3)cs2)c1)Nc1cc(F)ccc1F` displayed an RP-LC retention time of 825 s.

As for `O=C(Nc1ccc(-c2cn3cccnc3n2)cc1)C1CCCC1`, the RP-LC retention time worked out at 648 s.

In turn, `CCC(CO)Nc1nc2ccc(Cl)cc2c2ccccc12` (stereo not given) registered an RP-LC retention time of 732 s.

For the molecule `CN(C)C(=O)c1ccc2c(c1)CCN2C(=O)C1CCC1`, the RP-LC retention time amounted to 700 s.

Take `Cc1ccc(C)c(C(=O)N2CCCC2c2nc(-c3cccc(Cl)c3)no2)c1` (stereo not given): the RP-LC retention time worked out at 1190 s.

`N#Cc1cnc2ccc(F)cc2c1N1CCC(C(=O)Nc2ccc3c(c2)OCCO3)CC1` returned an RP-LC retention time of 804 s.

As for `O=C(Nc1ccccc1)N1CCN(c2cnn3c(C4CC4)nnc3c2)CC1`, the RP-LC retention time is 625 s.

Molecule `CCOC(=O)CC(=O)Nc1nc(C2COc3ccccc3O2)cs1` (stereo not given) gave an RP-LC retention time of 921 s.

Regarding `Cc1ccc(Cn2c(=O)c3nn(C)cc3n3c(=O)n(Cc4ccc(F)cc4)nc23)cc1`, the RP-LC retention time stood at 947 s.

Molecule `O=C(Nc1cc(-c2ccccn2)no1)c1ccc(Br)cc1` yielded an RP-LC retention time of 868 s.

`CC(C)NC(=O)c1ccc(OCC2CCN(C(=O)C3CCCO3)CC2)cc1` (stereo not given): the RP-LC retention time was 697 s.

As for `O=C1Nc2cc(C(=O)N3CCC(Cc4ccccc4)CC3)ccc2N2CCCCC12` (stereo not given), the RP-LC retention time amounted to 1020 s.

Molecule `COc1ccc(NC(=O)N(C)CCc2noc(COc3ccc(F)cc3)n2)cc1` showed an RP-LC retention time of 692 s.

`Cc1ccc(-c2ncc(C(=O)Nc3ccccc3Br)c(-c3ccncc3)n2)cc1` displayed an RP-LC retention time of 994 s.

Turning to `COCc1nc(N2CCN(c3ccc(OC)cc3)CC2)ncc1C(=O)O`, the RP-LC retention time came to 666 s.

In turn, `O=C(c1ccsc1)N1CC(F)(F)C[C@H]1COc1ccc2c(c1)CCC2` registered an RP-LC retention time of 1150 s.

`COC1CCC12CCN(C(=O)c1ccoc1)CC2` (stereo not given) displayed an RP-LC retention time of 723 s.

As to `O=C(c1nnc(-c2ccc(S(=O)(=O)N3CCOCC3)cc2)o1)N1CCC(Cc2ccccc2)CC1`, the RP-LC retention time worked out at 1080 s.

Regarding `COc1cc(Cl)c(C)cc1NC(=O)Cc1nnc(-c2ccc3ncccc3c2)o1`, the RP-LC retention time worked out at 848 s.

In turn, `Cc1sc(NC(=O)COc2ccc(Cl)cc2)nc1-c1ccc2c(c1)NC(=O)C(C)O2` (stereo not given) had an RP-LC retention time of 1020 s.

With `COc1ccc(-c2cc(C(=O)O)c3ccccc3n2)cc1OC`, the RP-LC retention time was 658 s.

Consider `CNC(=O)[C@@H]1C[C@@H](O)CN1C1CCN(C(=O)CC2=CCCCC2)CC1`, for which the RP-LC retention time came out at 574 s.

`CCOc1ccccc1CN1CCc2nc(N3CCN(CC)CC3)ncc2C1` had an RP-LC retention time of 1120 s.

As to `Cc1n[nH]c(C)c1S(=O)(=O)N1CCC(c2nnc(C3CC3)s2)CC1`, the RP-LC retention time worked out at 623 s.

The molecule `CC1CCN(c2cc(-n3cnc(C(=O)Nc4ccc5c(c4)OCO5)c3)ncn2)CC1` registered an RP-LC retention time of 1060 s.

`CCOc1ccc(N2CCCCn3c2nc2c3c(=O)n(CC)c(=O)n2C)cc1` came in with an RP-LC retention time of 902 s.

Regarding `Cc1nc(N2CCN(c3ccccn3)CC2)nc2c1C(=O)CC(C)C2` (stereo not given), the RP-LC retention time came to 652 s.

`CN1CCCCCCN(C(=O)c2cccs2)[C@H]2CCC[C@H]2C1=O` returned an RP-LC retention time of 826 s.
